# Assay results: ChEMBL document CHEMBL1143974, “Synthesis and cyclooxygenase inhibitory activities of linear 1-(methanesulfonylphenyl or benzenesulfonamido)-2-(pyridyl)acetylene regioisomers” (Bioorg Med Chem, 2008)
# pIC50: −log10 of the molar value.
# Experiments:
# [1] = biological target: T1, Prostaglandin G/H synthase 1 (Ovis aries, UniProt P05979); assay: Inhibition of ovine COX1 by enzyme immuno assay
# T1 sequence (P05979 whole entry): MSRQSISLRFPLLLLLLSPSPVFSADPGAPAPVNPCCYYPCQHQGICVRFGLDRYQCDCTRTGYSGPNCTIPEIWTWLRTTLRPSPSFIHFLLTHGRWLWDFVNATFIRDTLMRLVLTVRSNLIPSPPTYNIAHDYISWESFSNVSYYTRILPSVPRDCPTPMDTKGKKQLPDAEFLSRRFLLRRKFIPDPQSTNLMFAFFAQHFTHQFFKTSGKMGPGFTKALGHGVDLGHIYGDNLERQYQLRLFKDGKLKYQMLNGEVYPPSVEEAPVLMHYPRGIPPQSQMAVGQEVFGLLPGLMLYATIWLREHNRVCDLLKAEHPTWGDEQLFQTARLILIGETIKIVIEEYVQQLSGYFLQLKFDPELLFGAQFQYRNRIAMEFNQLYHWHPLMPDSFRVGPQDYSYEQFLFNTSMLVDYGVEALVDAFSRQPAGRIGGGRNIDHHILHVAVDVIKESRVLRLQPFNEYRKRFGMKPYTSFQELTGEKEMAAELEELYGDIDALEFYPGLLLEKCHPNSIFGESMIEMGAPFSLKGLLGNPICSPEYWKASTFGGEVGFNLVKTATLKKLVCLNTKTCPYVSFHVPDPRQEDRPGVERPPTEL
# Rattus norvegicus = assay: Antiinflammatory activity against carrageenan-induced foot paw edema in orally dosed rat after 3 hrs; type: functional; conditions: po, read-out: ID50 (the source's name)
# Ovis aries = species on record: Ovis aries; assay: Selectivity index, ratio of IC50 for ovine COX1 to IC50 for ovine COX2
SMILES,pIC50 [1],Ratio IC50 (Ovis aries),ED50 (Rattus norvegicus) [mg/kg]
CS(=O)(=O)c1cccc(C#Cc2ccccn2)c1,4.50,,76.4
Cc1cccnc1C#Cc1ccc(S(C)(=O)=O)cc1,< 4.00,,
CS(=O)(=O)c1cccc(C#Cc2ccncc2)c1,< 4.00,> 312,
CS(=O)(=O)c1ccccc1C#Cc1ccncc1,6.59,,
CS(=O)(=O)c1ccc(C#Cc2cccnc2)cc1,5.49,,59.9
CS(=O)(=O)c1ccccc1C#Cc1ccccn1,6.55,,
CC(=O)Oc1ccccc1C(=O)O [ASPIRIN],,,129

# The next lines start with results.
pIC50 [1],Ratio IC50 (Ovis aries),SMILES,ED50 (Rattus norvegicus) [mg/kg]
5.89,,Cc1cccnc1C#Cc1ccc(S(N)(=O)=O)cc1,76.6
5.03,,NS(=O)(=O)c1ccc(C#Cc2ccccn2)cc1,
5.70,,Cc1cccnc1C#Cc1ccccc1S(C)(=O)=O,
< 4.00,> 3.1,CS(=O)(=O)c1cccc(C#Cc2cccnc2)c1,
5.41,,NS(=O)(=O)c1ccc(C#Cc2ccncc2)cc1,
4.50,,CS(=O)(=O)c1ccc(C#Cc2ccccn2)cc1,
